Measured values: the NIST ThermoML archive (doi:10.1016/j.jct.2017.12.023)

Test: xn = mol fraction of the nth substance listed
Conditions: 100 kPa, Liquid; for viscosity: Concentric cylinders viscometry; for mass density: Vibrating tube method

CCOS(=O)(=O)[O-].CCn1cc[n+](C)c1 [1-ethyl-3-methylimidazolium ethyl sulfate] + CCCCCCO
Conditions	mass density [kg/m3]	viscosity [mPa·s]
288.15 K, x1 = 0.1016	883.62	9.353
288.15 K, x1 = 0.2016	938.59	13.3
288.15 K, x1 = 0.3005	988.2	18.78
288.15 K, x1 = 0.3989	1033.38	26.42
288.15 K, x1 = 0.4975	1075.01	36.71
288.15 K, x1 = 0.5956	1113.22	50.2
288.15 K, x1 = 0.6647	1138.48	61.57
288.15 K, x1 = 0.7947	1182.52	90.12
288.15 K, x1 = 0.897	1214.13	117.32
288.15 K, x1 = 1	1243.07	155.55
293.15 K, x1 = 0.1016	880.04	7.885
293.15 K, x1 = 0.2016	935.01	11.15
293.15 K, x1 = 0.3005	984.62	15.65
293.15 K, x1 = 0.3989	1029.83	21.79
293.15 K, x1 = 0.4975	1071.48	29.93
293.15 K, x1 = 0.5956	1109.72	40.24
293.15 K, x1 = 0.6647	1135	48.86
293.15 K, x1 = 0.7947	1179.07	69.76
293.15 K, x1 = 0.897	1210.7	90.21
293.15 K, x1 = 1	1239.66	117.88
298.15 K, x1 = 0.1016	876.47	6.825
298.15 K, x1 = 0.2016	931.44	9.64
298.15 K, x1 = 0.3005	981.06	13.44
298.15 K, x1 = 0.3989	1026.28	18.54
298.15 K, x1 = 0.4975	1067.96	25.04
298.15 K, x1 = 0.5956	1106.23	33.31
298.15 K, x1 = 0.6647	1131.53	40.06
298.15 K, x1 = 0.7947	1175.63	55.99
298.15 K, x1 = 0.897	1207.28	71.04
298.15 K, x1 = 1	1236.27	91.26
303.15 K, x1 = 0.1016	872.88	5.918
303.15 K, x1 = 0.2016	927.87	8.313
303.15 K, x1 = 0.3005	977.51	11.56
303.15 K, x1 = 0.3989	1022.76	15.8
303.15 K, x1 = 0.4975	1064.47	21.17
303.15 K, x1 = 0.5956	1102.76	27.85
303.15 K, x1 = 0.6647	1128.08	33.14
303.15 K, x1 = 0.7947	1172.21	45.6
303.15 K, x1 = 0.897	1203.87	57.05
303.15 K, x1 = 1	1232.87	72.1
308.15 K, x1 = 0.1016	869.3	5.153
308.15 K, x1 = 0.2016	924.31	7.242
308.15 K, x1 = 0.3005	973.98	10.01
308.15 K, x1 = 0.3989	1019.25	13.6
308.15 K, x1 = 0.4975	1060.99	18.02
308.15 K, x1 = 0.5956	1099.3	23.46
308.15 K, x1 = 0.6647	1124.65	27.77
308.15 K, x1 = 0.7947	1168.81	37.67
308.15 K, x1 = 0.897	1200.48	46.51
308.15 K, x1 = 1	1229.49	57.98
313.15 K, x1 = 0.1016	865.72	4.475
313.15 K, x1 = 0.2016	920.76	6.296
313.15 K, x1 = 0.3005	970.44	8.67
313.15 K, x1 = 0.3989	1015.75	11.7
313.15 K, x1 = 0.4975	1057.52	15.4
313.15 K, x1 = 0.5956	1095.87	19.84
313.15 K, x1 = 0.6647	1121.24	23.34
313.15 K, x1 = 0.7947	1165.42	31.23
313.15 K, x1 = 0.897	1197.11	38.33
313.15 K, x1 = 1	1226.13	47.26
318.15 K, x1 = 0.1016	862.11	3.975
318.15 K, x1 = 0.2016	917.2	5.593
318.15 K, x1 = 0.3005	966.93	7.683
318.15 K, x1 = 0.3989	1012.26	10.3
318.15 K, x1 = 0.4975	1054.07	13.44
318.15 K, x1 = 0.5956	1092.45	17.17
318.15 K, x1 = 0.6647	1117.84	20.06
318.15 K, x1 = 0.7947	1162.05	26.51
318.15 K, x1 = 0.897	1193.76	32.18
318.15 K, x1 = 1	1222.79	39.25
323.15 K, x1 = 0.1016	858.5	3.566
323.15 K, x1 = 0.2016	913.65	4.959
323.15 K, x1 = 0.3005	963.42	6.841
323.15 K, x1 = 0.3989	1008.79	9.127
323.15 K, x1 = 0.4975	1050.64	11.85
323.15 K, x1 = 0.5956	1089.05	14.98
323.15 K, x1 = 0.6647	1114.46	17.41
323.15 K, x1 = 0.7947	1158.7	22.64
323.15 K, x1 = 0.897	1190.42	27.41
323.15 K, x1 = 1	1219.46	32.94

CCOS(=O)(=O)[O-].CCn1cc[n+](C)c1 [1-ethyl-3-methylimidazolium ethyl sulfate] + CN1CCCC1=O
Conditions	mass density [kg/m3]	viscosity [mPa·s]
288.15 K, x1 = 0.1009	1079.2	3.992
288.15 K, x1 = 0.2012	1111.89	7.313
288.15 K, x1 = 0.3021	1138.72	12.42
288.15 K, x1 = 0.4012	1160.76	19.71
288.15 K, x1 = 0.4973	1178.79	29.14
288.15 K, x1 = 0.596	1194.97	42.09
288.15 K, x1 = 0.6998	1209.56	59.32
288.15 K, x1 = 0.7961	1221.74	79
288.15 K, x1 = 0.8821	1231.55	104.25
288.15 K, x1 = 1	1243.07	155.55
293.15 K, x1 = 0.1009	1074.95	3.554
293.15 K, x1 = 0.2012	1107.79	6.338
293.15 K, x1 = 0.3021	1134.75	10.51
293.15 K, x1 = 0.4012	1156.89	16.36
293.15 K, x1 = 0.4973	1175.02	23.79
293.15 K, x1 = 0.596	1191.28	33.7
293.15 K, x1 = 0.6998	1205.95	46.73
293.15 K, x1 = 0.7961	1218.2	61.57
293.15 K, x1 = 0.8821	1228.07	80.25
293.15 K, x1 = 1	1239.66	117.88
298.15 K, x1 = 0.1009	1070.72	3.21
298.15 K, x1 = 0.2012	1103.71	5.637
298.15 K, x1 = 0.3021	1130.79	9.181
298.15 K, x1 = 0.4012	1153.04	14.03
298.15 K, x1 = 0.4973	1171.26	20.08
298.15 K, x1 = 0.596	1187.6	27.95
298.15 K, x1 = 0.6998	1202.35	38.08
298.15 K, x1 = 0.7961	1214.66	49.4
298.15 K, x1 = 0.8821	1224.59	63.39
298.15 K, x1 = 1	1236.27	91.26
303.15 K, x1 = 0.1009	1066.49	2.908
303.15 K, x1 = 0.2012	1099.65	5.01
303.15 K, x1 = 0.3021	1126.85	8.026
303.15 K, x1 = 0.4012	1149.22	12.06
303.15 K, x1 = 0.4973	1167.52	17
303.15 K, x1 = 0.596	1183.95	23.38
303.15 K, x1 = 0.6998	1198.77	31.46
303.15 K, x1 = 0.7961	1211.15	40.33
303.15 K, x1 = 0.8821	1221.13	51.1
303.15 K, x1 = 1	1232.87	72.1
308.15 K, x1 = 0.1009	1062.28	2.649
308.15 K, x1 = 0.2012	1095.59	4.488
308.15 K, x1 = 0.3021	1122.93	7.071
308.15 K, x1 = 0.4012	1145.41	10.47
308.15 K, x1 = 0.4973	1163.8	14.56
308.15 K, x1 = 0.596	1180.31	19.81
308.15 K, x1 = 0.6998	1195.21	26.22
308.15 K, x1 = 0.7961	1207.65	33.3
308.15 K, x1 = 0.8821	1217.69	41.58
308.15 K, x1 = 1	1229.49	57.98
313.15 K, x1 = 0.1009	1058.09	2.432
313.15 K, x1 = 0.2012	1091.55	4.013
313.15 K, x1 = 0.3021	1119.03	6.231
313.15 K, x1 = 0.4012	1141.61	9.114
313.15 K, x1 = 0.4973	1160.1	12.5
313.15 K, x1 = 0.596	1176.69	16.76
313.15 K, x1 = 0.6998	1191.67	22.04
313.15 K, x1 = 0.7961	1204.17	27.72
313.15 K, x1 = 0.8821	1214.27	34.42
313.15 K, x1 = 1	1226.13	47.26
318.15 K, x1 = 0.1009	1053.91	2.231
318.15 K, x1 = 0.2012	1087.53	3.668
318.15 K, x1 = 0.3021	1115.14	5.615
318.15 K, x1 = 0.4012	1137.84	8.113
318.15 K, x1 = 0.4973	1156.42	11
318.15 K, x1 = 0.596	1173.09	14.57
318.15 K, x1 = 0.6998	1188.15	18.93
318.15 K, x1 = 0.7961	1200.71	23.58
318.15 K, x1 = 0.8821	1210.86	29
318.15 K, x1 = 1	1222.79	39.25
323.15 K, x1 = 0.1009	1049.74	2.061
323.15 K, x1 = 0.2012	1083.52	3.344
323.15 K, x1 = 0.3021	1111.25	5.053
323.15 K, x1 = 0.4012	1134.08	7.216
323.15 K, x1 = 0.4973	1152.75	9.678
323.15 K, x1 = 0.596	1169.51	12.7
323.15 K, x1 = 0.6998	1184.64	16.34
323.15 K, x1 = 0.7961	1197.26	20.2
323.15 K, x1 = 0.8821	1207.47	24.63
323.15 K, x1 = 1	1219.46	32.94
328.15 K, x1 = 0.1009	1045.59	1.912
328.15 K, x1 = 0.2012	1079.52	3.064
328.15 K, x1 = 0.3021	1107.38	4.575
328.15 K, x1 = 0.4012	1130.34	6.458
328.15 K, x1 = 0.4973	1149.1	8.585
328.15 K, x1 = 0.596	1165.95	11.16
328.15 K, x1 = 0.6998	1181.15	14.23
328.15 K, x1 = 0.7961	1193.83	17.46
328.15 K, x1 = 0.8821	1204.1	21.14
328.15 K, x1 = 1	1216.16	27.96
333.15 K, x1 = 0.1009	1041.42	1.782
333.15 K, x1 = 0.2012	1075.53	2.804
333.15 K, x1 = 0.3021	1103.53	4.154
333.15 K, x1 = 0.4012	1126.61	5.808
333.15 K, x1 = 0.4973	1145.47	7.681
333.15 K, x1 = 0.596	1162.4	9.893
333.15 K, x1 = 0.6998	1177.67	12.51
333.15 K, x1 = 0.7961	1190.42	15.27
333.15 K, x1 = 0.8821	1200.75	18.36
333.15 K, x1 = 1	1212.86	24.09
